pEC50: −log10 of the molar value.

For 25 compounds, EC50 results are on record in US20250145594A1, “MODULATORS OF THE INTEGRATED STRESS PATHWAY” (Calico Life Sciences LLC, priority 2020, published 2025).

The subject of the experiment is ATF4 luciferase reporter in HEK293T cells. Description: ATF4-Luc assay (in vitro model of VWMD). The class given is cell-based, human. The following applies: Homo sapiens, HEK-293T, 7 h, HEK293T cells carrying the ATF4 luciferase reporter, 1 μg/mL tunicamycin, One Glo luminescence. The gist of the method:
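Tunicamycin (1 μg/mL) stress with co-added compound for 7 hours in HEK293T cells stably carrying an ATF4 5′-UTR–luciferase reporter. EC50 values come from the luminescent signal (One Glo).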
(Reporter assays use an easily measured gene product as a stand-in for the process of interest.)
With `COc1ccc2cn(C34CC(NC(=O)[C@H]5C[C@@H](O)c6cc(Cl)c(F)cc6O5)(C3)C4)nc2c1` [Compound 504, (2R,4R)-6-chloro-7-fluoro-4-hydroxy-N-[3-(6-methoxy-2H-indazol-2-yl)bicyclo[1.1.1]pentan-1-yl]-3,4-dihydro-2H-1-benzopyran-2-carboxamide], the pEC50 (commonly the negative decadic logarithm of the EC50, by convention in mol/L) is above 8.00.

As to `COc1ccc2nn(C34CC(NC(=O)[C@H]5C[C@@H](O)c6cc(Cl)c(F)cc6O5)(C3)C4)cc2c1` [Compound 505, (2R,4R)-6-chloro-7-fluoro-4-hydroxy-N-[3-(5-methoxy-2H-indazol-2-yl)bicyclo[1.1.1]pentan-1-yl]-3,4-dihydro-2H-1-benzopyran-2-carboxamide], the pEC50 was above 8.00.

For `COc1ccc2nn(C34CC(NC(=O)[C@H]5C[C@@H](O)c6cc(Cl)c(F)cc6O5)(C3)C4)cc2n1` [Compound 506, (2R,4R)-6-chloro-7-fluoro-4-hydroxy-N-[3-(5-methoxy-2H-pyrazolo[4,3-b]pyridin-2-yl)bicyclo[1.1.1]pentan-1-yl]-3,4-dihydro-2H-1-benzopyran-2-carboxamide], the pEC50 is above 8.00.

For the compound `COc1ccc2nn(C34CC(NC(=O)[C@H]5C[C@@H](O)c6cc(Cl)c(Cl)cc6O5)(C3)C4)cc2c1` [Compound 507, (2R,4R)-6,7-dichloro-4-hydroxy-N-[3-(5-methoxy-2H-indazol-2-yl)bicyclo[1.1.1]pentan-1-yl]-3,4-dihydro-2H-1-benzopyran-2-carboxamide], the pEC50 is above 8.00.

Turning to `COc1ccc2nn([C@H]3CC[C@H](NC(=O)[C@H]4C[C@@H](O)c5cc(Cl)ccc5O4)CC3)cc2n1` [Compound 508, (2R,4R)-6-chloro-4-hydroxy-N-[(1r,4R)-4-(5-methoxy-2H-pyrazolo[4,3-b]pyridin-2-yl)cyclohexyl]-3,4-dihydro-2H-1-benzopyran-2-carboxamide], the pEC50 is 7.30 to 8.00.

On to `O=C(NC12CC(n3cc4cc(OC(F)(F)F)ccc4n3)(C1)C2)[C@H]1C[C@@H](O)c2cc(Cl)ccc2O1` [Compound 509, (2R,4R)-6-chloro-4-hydroxy-N-{3-[5-(trifluoromethoxy)-2H-indazol-2-yl]bicyclo[1.1.1]pentan-1-yl}-3,4-dihydro-2H-1-benzopyran-2-carboxamide], for which the negative logarithm of the EC50 (pEC50) was 7.30 to 8.00.

On to `COCc1ccc2nn(C34CC(NC(=O)[C@H]5C[C@@H](O)c6cc(Cl)ccc6O5)(C3)C4)cc2c1` [Compound 510, (2R,4R)-6-chloro-4-hydroxy-N-{3-[5-(methoxymethyl)-2H-indazol-2-yl]bicyclo[1.1.1]pentan-1-yl}-3,4-dihydro-2H-1-benzopyran-2-carboxamide], for which the pEC50 is 7.30 to 8.00.

Turning to `O=C(NC12CC(n3cc4c(n3)CN(C(=O)COC(F)(F)F)C4)(C1)C2)[C@H]1C[C@@H](O)c2cc(Cl)c(F)cc2O1` [Compound 511, (2R,4R)-6-chloro-7-fluoro-4-hydroxy-N-(3-{5-[(trifluoromethoxy)acetyl]-5,6-dihydropyrrolo[3,4-c]pyrazol-2(4H)-yl}bicyclo[1.1.1]pentan-1-yl)-3,4-dihydro-2H-1-benzopyran-2-carboxamide], the pEC50 is 7.30 to 8.00.

Regarding `O=C(NC12CC(n3cc4c(n3)CN(CCOC(F)(F)F)C4)(C1)C2)[C@H]1C[C@@H](O)c2cc(Cl)c(F)cc2O1` [Compound 512, (2R,4R)-6-chloro-7-fluoro-4-hydroxy-N-(3-{5-[2-(trifluoromethoxy)ethyl]-5,6-dihydropyrrolo[3,4-c]pyrazol-2(4H)-yl}bicyclo[1.1.1]pentan-1-yl)-3,4-dihydro-2H-1-benzopyran-2-carboxamide], the pEC50 was 7.30 to 8.00.

For the compound `O=C(NC12CC(n3cc(CCCOC(F)(F)F)cn3)(C1)C2)[C@H]1C[C@@H](O)c2cc(C(F)(F)F)ccc2O1` [Compound 513, (2R,4R)-4-hydroxy-N-(3-{4-[3-(trifluoromethoxy)propyl]-1H-pyrazol-1-yl}bicyclo[1.1.1]pentan-1-yl)-6-(trifluoromethyl)-3,4-dihydro-2H-1-benzopyran-2-carboxamide], the negative logarithm of the EC50 (pEC50) was above 8.00.

On to `O=C(NC12CC(n3cc(CCCOC(F)(F)F)cn3)(C1)C2)[C@H]1C[C@@H](O)c2cc(Cl)c(F)cc2O1` [Compound 514, (2R,4R)-6-chloro-7-fluoro-4-hydroxy-N-(3-{4-[3-(trifluoromethoxy)propyl]-1H-pyrazol-1-yl}bicyclo[1.1.1]pentan-1-yl)-3,4-dihydro-2H-1-benzopyran-2-carboxamide], for which the negative logarithm of the EC50 (pEC50) is above 8.00.

In the case of `O=C(NC12CC(n3cc(CCOC(F)(F)F)cn3)(C1)C2)[C@H]1C[C@@H](O)c2cc(Cl)c(F)cc2O1` [Compound 515, (2R,4R)-6-chloro-7-fluoro-4-hydroxy-N-(3-{4-[2-(trifluoromethoxy)ethyl]-1H-pyrazol-1-yl}bicyclo[1.1.1]pentan-1-yl)-3,4-dihydro-2H-1-benzopyran-2-carboxamide], the pEC50 is 7.30 to 8.00.

`O=C(NC12CC(n3cc(CCCOC(F)(F)F)nn3)(C1)C2)[C@H]1C[C@@H](O)c2cc(Cl)ccc2O1` [Compound 516, (2R,4R)-6-chloro-4-hydroxy-N-(3-{4-[3-(trifluoromethoxy)propyl]-1H-1,2,3-triazol-1-yl}bicyclo[1.1.1]pentan-1-yl)-3,4-dihydro-2H-1-benzopyran-2-carboxamide]: the negative logarithm of the EC50 (pEC50) is above 8.00.

Consider `O=C(NC12CC(n3cc(OCCCC(F)(F)F)cn3)(C1)C2)[C@H]1C[C@@H](O)c2cc(Cl)ccc2O1` [Compound 517, (2R,4R)-6-chloro-4-hydroxy-N-{3-[4-(4,4,4-trifluorobutoxy)-1H-pyrazol-1-yl]bicyclo[1.1.1]pentan-1-yl}-3,4-dihydro-2H-1-benzopyran-2-carboxamide], for which the negative logarithm of the EC50 (pEC50) was above 8.00.

Take `O=C(NC12CC(n3cc(OCCOC(F)(F)F)cn3)(C1)C2)[C@H]1CNc2cc(Cl)ccc2O1` [Compound 518, (2R)-6-chloro-N-(3-{4-[2-(trifluoromethoxy)ethoxy]-1H-pyrazol-1-yl}bicyclo[1.1.1]pentan-1-yl)-3,4-dihydro-2H-1,4-benzoxazine-2-carboxamide]: the pEC50 was 7.30 to 8.00.

Turning to `O=C(NC12CC(n3cc(OCCOC(F)(F)F)cn3)(C1)C2)[C@@H]1CNc2cc(Cl)ccc2O1` [Compound 519, (2S)-6-chloro-N-(3-{4-[2-(trifluoromethoxy)ethoxy]-1H-pyrazol-1-yl}bicyclo[1.1.1]pentan-1-yl)-3,4-dihydro-2H-1,4-benzoxazine-2-carboxamide], the pEC50 is 7.30 to 8.00.

As for `O=C(NC12CC(n3cc(CCCC(F)(F)F)cn3)(C1)C2)[C@H]1C[C@@H](O)c2cc(Cl)c(F)cc2O1` [Compound 520, (2R,4R)-6-chloro-7-fluoro-4-hydroxy-N-{3-[4-(4,4,4-trifluorobutyl)-1H-pyrazol-1-yl]bicyclo[1.1.1]pentan-1-yl}-3,4-dihydro-2H-1-benzopyran-2-carboxamide], the pEC50 is 7.30 to 8.00.

In the case of `CC(F)(F)CCCOc1cnn(C23CC(NC(=O)[C@H]4C[C@@H](O)c5cc(Cl)ccc5O4)(C2)C3)c1` [Compound 521, (2R,4R)-6-chloro-N-(3-{4-[(4,4-difluoropentyl)oxy]-1H-pyrazol-1-yl}bicyclo[1.1.1]pentan-1-yl)-4-hydroxy-3,4-dihydro-2H-1-benzopyran-2-carboxamide], the pEC50 is 7.30 to 8.00.

As for `O=C(NC12CC(n3cc(COCCOC(F)(F)F)nn3)(C1)C2)[C@H]1C[C@@H](O)c2cc(Cl)ccc2O1` [Compound 522, (2R,4R)-6-chloro-4-hydroxy-N-[3-(4-{[2-(trifluoromethoxy)ethoxy]methyl}-1H-1,2,3-triazol-1-yl)bicyclo[1.1.1]pentan-1-yl]-3,4-dihydro-2H-1-benzopyran-2-carboxamide], the pEC50 was above 8.00.

Turning to `O=C(N[C@H]1CC[C@H](n2cc(OCCOC(F)(F)F)cn2)CC1)[C@H]1C[C@@H](O)c2cc(F)ccc2O1` [Compound 523, (2R,4R)-6-fluoro-4-hydroxy-N-[(1r,4R)-4-{4-[2-(trifluoromethoxy)ethoxy]-1H-pyrazol-1-yl}cyclohexyl]-3,4-dihydro-2H-1-benzopyran-2-carboxamide], the pEC50 is above 8.00.

For the compound `O=C(N[C@H]1CC[C@H](n2cc(OCC(F)(F)F)cn2)CC1)[C@H]1C[C@@H](O)c2cc(Cl)ccc2O1` [Compound 524, (2R,4R)-6-chloro-4-hydroxy-N-{(1r,4R)-4-[4-(2,2,2-trifluoroethoxy)-1H-pyrazol-1-yl]cyclohexyl}-3,4-dihydro-2H-1-benzopyran-2-carboxamide], the pEC50 was 7.30 to 8.00.

On to `O=C(NC12CC(c3ccnc(OCCOC(F)(F)F)n3)(C1)C2)[C@H]1C[C@@H](O)c2cc(Cl)ccc2O1` [Compound 525, (2R,4R)-6-chloro-4-hydroxy-N-(3-{2-[2-(trifluoromethoxy)ethoxy]pyrimidin-4-yl}bicyclo[1.1.1]pentan-1-yl)-3,4-dihydro-2H-1-benzopyran-2-carboxamide], for which the pEC50 is 7.30 to 8.00.

On to `O=C(N[C@H]1CC[C@H](n2cc(OCCCC(F)(F)F)cn2)CC1)[C@H]1C[C@@H](O)c2cc(Cl)ccc2O1` [Compound 526, (2R,4R)-6-chloro-4-hydroxy-N-{(1r,4R)-4-[4-(4,4,4-trifluorobutoxy)-1H-pyrazol-1-yl]cyclohexyl}-3,4-dihydro-2H-1-benzopyran-2-carboxamide], for which the negative logarithm of the EC50 (pEC50) is 7.30 to 8.00.

In the case of `O=C(N[C@H]1CC[C@H](n2cc(OCCCC(F)(F)F)cn2)CC1)[C@H]1C[C@@H](O)c2cc(Cl)c(F)cc2O1` [Compound 527, (2R,4R)-6-chloro-7-fluoro-4-hydroxy-N-((1r,4R)-4-[4-(4,4,4-trifluorobutoxy)-1H-pyrazol-1-yl]cyclohexyl)-3,4-dihydro-2H-1-benzopyran-2-carboxamide], the pEC50 was above 8.00.

With `O=C(NC12CC(c3cnn(CCCOC(F)(F)F)c3)(C1)C2)[C@H]1C[C@@H](O)c2cc(Cl)ccc2O1` [Compound 528, (2R,4R)-6-chloro-4-hydroxy-N-(3-{1-[3-(trifluoromethoxy)propyl]-1H-pyrazol-4-yl}bicyclo[1.1.1]pentan-1-yl)-3,4-dihydro-2H-1-benzopyran-2-carboxamide], the pEC50 was 7.30 to 8.00.
